Laboratory results reported in patent publication US8106052B2, “Luminescence-based methods and probes for measuring cytochrome P450 activity” (Promega Corporation, priority 2002, dated 2012).

Assays:
[1] = test system: pooled human liver microsomes; experiment: Pooled human liver microsomes in two-step luminescent CYP450 reaction; details: pooled human liver microsomes, 60 minutes at 37° C.
Method: FIG. 8. Pooled human liver microsomes in two-step luminescent CYP450 reactions. D-luciferin derivatives were incubated in a CYP450 reaction mix with pooled human liver microsomes for 60 minutes at 37° C. before combining with a luciferase reaction mixture. For controls liver microsomes were replaced with control (no CYP450) Sf9 cell membranes. Luminescence was read within 12 minutes of combining the reactions on a Berthold Orion luminometer. […] Values labeled “nt” are vehicle controls.
(§1) In this Example, a procedure for a two-step CYP450/luciferase assay is provided. Luciferin derivatives were evaluated as P450 substrates and luciferase pro-substrates using this procedure. 20 microliter CYP450 reactions were prepared at pH 7.4 in an amount of KPO4 buffer that is optimal for a given CYP450 isoform (100 mM for CYP1A1, CYP1A2, CYP2B6, CYP2D6 and CYP2E1; 50 mM for CYP2C8 and CYP2C19; 25 mM for 2C9 and for pooled human liver microsomes; 200 mM for CYP3A4). For CYP2A6 100 mM Tris at pH 7.5 was substituted for KPO4. […] Reactions were initiated by addition of 0.4 pmoles recombinant human CYP450 co-expressed with CYP450 reductase in Sf9 cell microsomal membranes or 4 microgram pooled human liver microsomes and incubation at 37° C. After an initial incubation period at 37° C. 20 microliter CYP450 reactions were mixed with an 80 microliter luciferase reaction mix. […] Assays were also performed using 50 microliter CYP450 and luciferase reaction volumes (e.g., FIG. 3, panel B, table 3). Light output was measured immediately in a Turner Reporter, Turner 20/20 or Berthold Orion luminometer. Because the calibration of instruments from different manufacturers varies the quantitation of light output is instrument-specific and direct comparisons between instruments cannot be made.

CYP2C9 [2] = target: T1, CYP2C9 (Homo sapiens, UniProt P11712); experiment: Two-step CYP450/luciferase reaction, luciferin derivative evaluation as substrate; details: for Light output over controls with CYP2C9: CYP450 incubation 60 minutes at 37° C., then luciferase
Method: as §1
(§2) O-dealkylation and hydroxylation are common CYP450 catalyzed xenobiotic transformations (9). […] The CYP450 activities tested are contained in microsome fractions from insect cells that over-express a single recombinant human CYP450 isoform in combination with NADPH CYP450 reductase. It was reasoned that if CYP450s dealkylated or hydroxylated the luciferin derivatives at the 6′ position, authentic luciferin would be generated that could be detected enzymatically in a light generating firefly luciferase reaction as described by the equation in FIG. 1.
(§3) The panel included CYP1A1, CYP1A2, CYP2A6, CYP2B6, CYP2C8, CYP2C9, CYP2C19, CYP2D6, CYP2E1 and CYP3A4. After an initial incubation with CYP450, luciferase and its requisite cofactors were added and light output was monitored (FIGS. 3 and 9).
Target sequence in this assay (P11712 whole entry): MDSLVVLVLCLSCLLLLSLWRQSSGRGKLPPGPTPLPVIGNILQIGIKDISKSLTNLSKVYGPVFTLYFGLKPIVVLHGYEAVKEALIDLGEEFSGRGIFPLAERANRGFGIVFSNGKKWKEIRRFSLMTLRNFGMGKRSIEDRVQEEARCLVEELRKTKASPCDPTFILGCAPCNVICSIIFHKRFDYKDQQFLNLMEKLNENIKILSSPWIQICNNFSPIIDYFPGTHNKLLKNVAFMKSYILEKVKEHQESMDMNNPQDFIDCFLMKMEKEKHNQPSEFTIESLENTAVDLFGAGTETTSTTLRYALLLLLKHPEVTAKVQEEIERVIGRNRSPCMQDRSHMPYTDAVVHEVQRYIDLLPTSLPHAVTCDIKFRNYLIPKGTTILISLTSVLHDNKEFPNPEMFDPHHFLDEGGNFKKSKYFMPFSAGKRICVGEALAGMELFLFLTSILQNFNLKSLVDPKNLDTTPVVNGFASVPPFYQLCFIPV

CYP1A2 [3] = target: T2, CYP1A2 (Homo sapiens, UniProt P05177); experiment: as above; details: CYP450 incubation 60 minutes at 37° C., then luciferase
T2 sequence (P05177 1-516): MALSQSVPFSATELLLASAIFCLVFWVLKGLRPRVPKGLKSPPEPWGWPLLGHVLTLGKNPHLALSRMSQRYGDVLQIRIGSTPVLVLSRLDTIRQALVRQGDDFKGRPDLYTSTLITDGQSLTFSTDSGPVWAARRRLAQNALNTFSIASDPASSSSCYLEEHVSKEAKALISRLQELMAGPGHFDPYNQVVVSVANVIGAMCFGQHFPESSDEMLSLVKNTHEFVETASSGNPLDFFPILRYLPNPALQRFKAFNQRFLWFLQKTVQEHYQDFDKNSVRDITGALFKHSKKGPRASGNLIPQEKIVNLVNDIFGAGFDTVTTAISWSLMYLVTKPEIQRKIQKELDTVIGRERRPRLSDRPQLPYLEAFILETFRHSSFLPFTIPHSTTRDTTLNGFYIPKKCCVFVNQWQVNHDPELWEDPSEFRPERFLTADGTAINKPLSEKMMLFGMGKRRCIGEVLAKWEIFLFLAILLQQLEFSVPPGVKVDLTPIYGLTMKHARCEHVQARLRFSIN
Method: as §1, §2, §3

CYP1A1 [4] = target: T3, CYP1A1 (Homo sapiens, UniProt P04798); details: CYP450 incubation 60 minutes at 37° C., then luciferase
T3 sequence (P04798 1-512): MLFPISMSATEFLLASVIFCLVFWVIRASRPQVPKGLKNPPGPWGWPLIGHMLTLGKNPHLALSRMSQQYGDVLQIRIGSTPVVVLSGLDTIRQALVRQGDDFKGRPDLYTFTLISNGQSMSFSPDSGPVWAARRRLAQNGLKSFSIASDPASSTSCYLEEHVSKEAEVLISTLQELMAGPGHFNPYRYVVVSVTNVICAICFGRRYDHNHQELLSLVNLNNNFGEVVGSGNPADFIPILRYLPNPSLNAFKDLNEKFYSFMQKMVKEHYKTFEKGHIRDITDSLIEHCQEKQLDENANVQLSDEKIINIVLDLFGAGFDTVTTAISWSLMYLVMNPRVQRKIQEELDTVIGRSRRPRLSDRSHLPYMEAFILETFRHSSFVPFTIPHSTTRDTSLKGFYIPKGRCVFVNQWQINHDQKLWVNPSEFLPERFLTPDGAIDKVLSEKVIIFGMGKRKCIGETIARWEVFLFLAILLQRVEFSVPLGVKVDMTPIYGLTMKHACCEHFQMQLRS
Method: as §1, §2, §3

CYP2C8 = target: T4, CYP2C8 (Homo sapiens, UniProt P10632); details: CYP450 incubation 60 minutes at 37° C., then luciferase
T4 sequence (P10632 1-490): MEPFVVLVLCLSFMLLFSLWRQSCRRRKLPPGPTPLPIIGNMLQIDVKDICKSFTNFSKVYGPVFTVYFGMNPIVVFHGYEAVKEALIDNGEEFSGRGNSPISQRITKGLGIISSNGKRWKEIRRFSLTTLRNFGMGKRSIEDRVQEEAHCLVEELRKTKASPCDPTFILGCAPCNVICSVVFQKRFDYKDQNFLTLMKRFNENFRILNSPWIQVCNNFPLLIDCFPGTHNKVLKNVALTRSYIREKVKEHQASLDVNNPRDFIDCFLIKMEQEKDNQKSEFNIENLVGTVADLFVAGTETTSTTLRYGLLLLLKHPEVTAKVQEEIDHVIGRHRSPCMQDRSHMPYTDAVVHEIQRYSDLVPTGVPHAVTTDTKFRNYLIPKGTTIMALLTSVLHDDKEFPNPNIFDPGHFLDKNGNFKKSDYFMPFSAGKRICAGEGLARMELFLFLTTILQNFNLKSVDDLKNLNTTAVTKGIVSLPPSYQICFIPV
Method: as §1, §2, §3

CYP1A1 [5] = target: T3, CYP1A1; experiment: CYP450-catalyzed conversion of luciferin derivatives to luciferin (HPLC); details: 100 micromolar, 37 C, HPLC with fluorescence detection
Method: At various time intervals, the reactions were stopped by the addition of Tergitol to 0.1% (v/v) and flash freezing in liquid nitrogen. 95 microliter aliquots of each reaction mixture were subjected to fractionation by HPLC. […] Separation was achieved on a 5 micron Adsorbosphere HS C18 column (Alltech Associates) with a solvent gradient of 0.05M KH2PO4/pH 6 (solvent A) and 80:20 acetonitrile/water (solvent B). The gradient conditions used were 15% B to 95% B over 10 min.

CYP2C19 = target: T5, CYP2C19 (Homo sapiens, UniProt P33261); experiment: Two-step CYP450/Renilla reaction, coelenterazine derivative evaluation; type: biochemical; details: 60 min at 37° C.; 10 micromolar substrate
T5 construct: purchased GenTest (Woburn, Mass.); host or cells: Sf9 insect cells, baculovirus
Method: (§4) In this Example, P450 activity was determined using coelenterazine and coelenterazine derivatives, methoxy-coelenterazine HH and coelenterazine HH, in a two-step reaction system. In these assays, P450 acts on the coelenterazine or coelenterazine derivatives in one of two ways. […] An example of this type of coelenterazine derivative is methoxy-coelenterazine HH. […] In both types of assay it is possible to detect P450 activity either directly by a change in chemiluminescence or indirectly by a change in bioluminescence from a Renilla-type luciferase.
(§5) […]; 625 mM KCl; 0.125 mM EDTA pH 8.0; 0.25% Triton X-100; 0.125% Mazu; 1.25% Glycerol; 0.25 mg/mL gelatin to the P450 reactions. Renilla luciferase (1.2 ng/mL) (purchased from Chemicon) was added for detection of bioluminescence of P450 altered coelenterazine or coelenterazine derivatives.

CYP2B6 = target: T6, CYP2B6 (Homo sapiens, UniProt P20813); experiment: as above; type: biochemical; details: 60 min at 37° C.; 10 micromolar substrate
T6 construct: purchased GenTest (Woburn, Mass.); host or cells: Sf9 insect cells, baculovirus
T6 sequence (P20813 1-491): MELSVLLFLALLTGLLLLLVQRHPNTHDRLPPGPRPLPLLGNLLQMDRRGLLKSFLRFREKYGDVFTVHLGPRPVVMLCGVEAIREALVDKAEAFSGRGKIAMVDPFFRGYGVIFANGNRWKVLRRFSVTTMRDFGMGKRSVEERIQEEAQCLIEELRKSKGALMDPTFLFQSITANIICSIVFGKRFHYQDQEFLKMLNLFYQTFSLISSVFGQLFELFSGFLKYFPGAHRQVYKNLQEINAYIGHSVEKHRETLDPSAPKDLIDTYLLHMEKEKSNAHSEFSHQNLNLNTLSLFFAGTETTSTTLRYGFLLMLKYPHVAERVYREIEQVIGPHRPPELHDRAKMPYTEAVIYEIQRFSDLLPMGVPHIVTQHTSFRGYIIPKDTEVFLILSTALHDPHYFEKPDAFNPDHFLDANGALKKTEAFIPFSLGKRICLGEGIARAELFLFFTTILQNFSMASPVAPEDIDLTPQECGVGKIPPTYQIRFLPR
Method: as §4, §5

CYP1A2 [6] = target: T2, CYP1A2; experiment: as above; type: biochemical; details: 60 min at 37° C.
Method: as §4, §5

CYP1A1 [7] = target: T3, CYP1A1; experiment: as above; type: biochemical; parameters: purchased GenTest (Woburn, Mass.); host or cells: baculovirus-infected insect cells; details: 60 min at 37° C.; 10 micromolar substrate
Method: as §4, §5

CYP2E1 = target: T7, CYP2E1 (Homo sapiens, UniProt P05181); experiment: as above; type: biochemical; details: 60 min at 37° C.; 3 micromolar substrate
T7 construct: purchased GenTest (Woburn, Mass.); host or cells: Sf9 insect cells, baculovirus
Method: as §4, §5

CYP2C9 [8] = target: T1, CYP2C9; experiment: CYP450-catalyzed conversion of luciferin derivatives to luciferin (HPLC); type: biochemical; details: 100 micromolar, 37 C, HPLC with fluorescence detection
Target sequence in this assay (P11712 whole entry, species assumed): as the sequence (P11712 whole entry) above

CYP2C9 [9] = target: T1, CYP2C9; experiment: One-step CYP450/luciferase reaction; type: biochemical; parameters: purchased GenTest (Woburn, Mass.); host or cells: Sf9 insect cells; details: 37° C.
Method: (§6) Luciferin derivatives were evaluated as P450 substrates and luciferase pro-substrates using this procedure.
Target sequence in this assay (P11712 whole entry): as the sequence (P11712 whole entry) above

CYP3A4 [10] = target: T8, CYP3A4 (Homo sapiens, UniProt P08684); experiment: One-step CYP450/luciferase reaction; details: 37° C.
Method: as §6

CYP3A4 [11] = target: T8, CYP3A4
Method: as §1, §2, §3

[12] = two-step, 37° C., up to 60 minutes

T8 sequence (P08684 whole entry): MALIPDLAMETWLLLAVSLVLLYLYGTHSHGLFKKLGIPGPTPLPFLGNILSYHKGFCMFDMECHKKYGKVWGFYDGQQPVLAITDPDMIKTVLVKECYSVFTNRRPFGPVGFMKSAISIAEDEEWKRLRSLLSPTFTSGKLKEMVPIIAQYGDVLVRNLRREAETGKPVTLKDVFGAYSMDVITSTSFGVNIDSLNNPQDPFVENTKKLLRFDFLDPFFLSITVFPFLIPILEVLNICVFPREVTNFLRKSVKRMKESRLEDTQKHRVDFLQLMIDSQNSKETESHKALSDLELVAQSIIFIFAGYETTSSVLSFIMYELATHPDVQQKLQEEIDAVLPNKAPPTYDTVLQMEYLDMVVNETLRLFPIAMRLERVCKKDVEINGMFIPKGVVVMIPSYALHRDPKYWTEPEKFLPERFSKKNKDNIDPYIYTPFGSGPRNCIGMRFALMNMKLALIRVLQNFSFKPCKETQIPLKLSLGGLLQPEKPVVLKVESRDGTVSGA
T7 sequence (P05181 whole entry): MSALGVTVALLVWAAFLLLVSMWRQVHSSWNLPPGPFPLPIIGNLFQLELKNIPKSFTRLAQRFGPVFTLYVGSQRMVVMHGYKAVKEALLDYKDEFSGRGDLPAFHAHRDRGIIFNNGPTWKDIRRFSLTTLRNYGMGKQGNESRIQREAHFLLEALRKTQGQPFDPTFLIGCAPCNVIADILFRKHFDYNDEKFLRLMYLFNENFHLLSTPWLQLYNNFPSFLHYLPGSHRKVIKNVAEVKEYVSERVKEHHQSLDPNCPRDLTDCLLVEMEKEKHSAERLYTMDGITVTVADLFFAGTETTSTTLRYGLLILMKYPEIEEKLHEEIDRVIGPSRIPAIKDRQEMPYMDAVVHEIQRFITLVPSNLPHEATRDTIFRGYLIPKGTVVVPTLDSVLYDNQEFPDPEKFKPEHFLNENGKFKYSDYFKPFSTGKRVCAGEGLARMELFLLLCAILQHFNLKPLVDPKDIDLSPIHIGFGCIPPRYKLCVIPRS
T5 sequence (P33261 whole entry): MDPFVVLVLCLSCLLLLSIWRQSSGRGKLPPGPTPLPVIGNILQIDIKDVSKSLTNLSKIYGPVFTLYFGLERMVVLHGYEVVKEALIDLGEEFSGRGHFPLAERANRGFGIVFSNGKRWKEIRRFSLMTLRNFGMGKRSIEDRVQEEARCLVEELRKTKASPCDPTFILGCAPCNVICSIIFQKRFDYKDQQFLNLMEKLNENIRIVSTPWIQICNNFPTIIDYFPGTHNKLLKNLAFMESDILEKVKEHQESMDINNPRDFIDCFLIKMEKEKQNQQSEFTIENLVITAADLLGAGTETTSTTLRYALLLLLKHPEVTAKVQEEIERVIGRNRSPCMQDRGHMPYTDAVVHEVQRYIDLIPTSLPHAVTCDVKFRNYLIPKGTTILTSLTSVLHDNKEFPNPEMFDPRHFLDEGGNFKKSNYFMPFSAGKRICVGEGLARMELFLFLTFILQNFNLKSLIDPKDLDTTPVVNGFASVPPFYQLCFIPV

| SMILES | CYP450 activity detected with the substrate compared to Sf9 cell membranes [1] | Light output over controls with CYP2C9 (CYP2C9 [2]) | Light output over controls with CYP1A2 (CYP1A2 [3]) | Light output over controls with CYP1A1 (CYP1A1 [4]) | Light output over controls with CYP2C8 (CYP2C8) | also measured |
| --- | --- | --- | --- | --- | --- | --- |
| CCOc1ccc2nc(C3=N[C@@H](C(=O)O)CS3)sc2c1 [Luc EE, luciferin 6′ ethyl ether] | significant amounts of CYP450 activity was detected | increased significantly | increased significantly | increased significantly | increased significantly |  |
| O=C(O)[C@H]1CSC(c2nc3ccc(OCCCl)cc3s2)=N1 [Luc CEE, Luciferin 6′-(2-chloroethyl)ether] |  | increased significantly | increased significantly | increased significantly | increased significantly | Conversion to luciferin by CYP1A1 (CYP1A1 [5]): confirmed |
| COc1c(Cc2ccccc2)nc2c(Cc3ccccc3)nc(-c3ccccc3)cn12 [methyl-coelenterazine HH, 2,8-Dibenzyl-3-methoxy-6-phenyl-imidazo[1,2-a]pyrazine] |  |  |  |  |  | Increase in chemiluminescence and bioluminescence with CYP2C19 (+P450 RLU/-P450 RLU) (CYP2C19): 2-5 ×; Increase in chemiluminescence and bioluminescence with CYP2B6 (+P450 RLU/-P450 RLU) (CYP2B6): 2-5 ×; Increase in chemiluminescence and bioluminescence with CYP1A2 (+P450 RLU/-P450 RLU) (CYP1A2 [6]; 10 micromolar substrate): 2-5 ×; Change in chemiluminescence and bioluminescence after incubation with CYP1A1 (CYP1A1 [7]): large increase |
| O=c1c(Cc2ccccc2)nc2c(Cc3ccccc3)[nH]c(-c3ccccc3)cn1-2 [coelenterazine HH, 2,8-Dibenzyl-6-phenyl-7H-imidazo[1,2-a]pyrazin-3-one] |  |  |  |  |  | Change in chemiluminescence and bioluminescence after incubation with CYP2E1 (CYP2E1): significant reduction; Change in chemiluminescence and bioluminescence after incubation with CYP1A2 (CYP1A2 [6]; 3 micromolar substrate): significant reduction |
| O=C(O)C1CSC(c2nc3ccccc3s2)=N1 (stereo not shown) [H-Luc, 6′-Deoxyluciferin] | significant amounts of CYP450 activity was detected | increased light output over controls | increased light output over controls |  |  | Time-dependence of light output on CYP2C9/substrate incubation (CYP2C9 [2]; [12]): increased in a linear fashion for up to 60 minutes; Conversion to luciferin by CYP2C9 (CYP2C9 [8]): confirmed; Light output over time, one-step with CYP2C9 (CYP2C9 [9]): increasing to a maximum by about 30 minutes and declining thereafter |
| O=C(O)[C@H]1CSC(c2nc3ccc(OCc4ccccc4)cc3s2)=N1 [Luc BE, Luciferin 6′-benzyl ether] | significant amounts of CYP450 activity was detected | increased significantly |  |  | increased significantly | Difference in light output to -CYP450 control, one-step with CYP3A4 (CYP3A4 [10]): modest; Light output over controls with CYP3A4 (CYP3A4 [11]; CYP450 incubation 60 minutes at 37° C., then luciferase): increased significantly; Time-dependence of light output on CYP3A4/substrate incubation (CYP3A4 [11]; [12]): increased in a linear fashion for up to 60 minutes |
